Data set [1] relates to Male Swiss Webster mice. Conditions: mouse, in vivo; for Reaction times with naloxone: ip.
For data set [2], the system named is mammals. In words: Analgesic potency, addictiveness and side-effects with morphine sulfate as standard of reference. The class given is in vivo.
Data set [3] relates to mice. Kind of data set: Reaction time in mice after intravenous injection in the tail vein. The class given is in vivo. Conditions: 50 ng iv tail vein, 90 minutes. The procedure: 50 ng of Substance P was administered peripherally to mice by intravenous injection in the tail vein. The mean reaction time at 90 minutes was 6.2 seconds.
Data set [4] deals with anaesthetized rats. The following applies: injected into anaesthetized rats; cited from earlier work.
Data set [5] has as its system test animals. In words: Time course of analgesia in test animals. The class given is in vivo. The source says: The dosage rate is selected so as to provide analgesia for a useful minimum period of time, while at the same time avoiding any impact of sudden severe lowering of blood pressure.
The test system of data set [6] is mice. Kind of data set: Hot plate analgesiometer in mice, intraperitoneal injection. The class given is in vivo. The procedure: The drug was administered by intraperitoneal injection, employing the solution prepared according to Example 1. Three groups of mice, 5 animals per group, received a single injection ip of Substance P or vehicle alone. Mice weighed 30 grams each. Group 1: Substance P, 5 microgram per mouse ([…])([…]) Group 2: Substance P, 1 microgram per mouse (1 × 10^-6 g)(33.3 microgram/kg) Group 3: Vehicle alone
On the day before the animals were to be given the drug, each animal was tested on the hot plate analgesiometer for its reaction time (the time in seconds after placing on the hot plate until the animal jumps). The next day animals were given the injection and then tested on the analgesiometer at times of 30, 60, 90, 120 and 150 minutes after the injection. From the reaction times observed the control reaction time determined the previous day was subtracted. The reaction times given in the table below are the increase in reaction time (over the control value) due to the injection.

The test system of data set [7] is human blister base. Conditions: isolated, not pure compound per the patent; cited from earlier work.
The subject of data set [8] is blood pressure. The following applies: intravenous administration described in the prior art; cited from earlier work.
The subject of data set [9] is brain opiate receptor. Conditions: in vitro; cited from earlier work.
The conditions of data set [10]: cited from earlier work.

Regarding `CN1CC[C@]23c4c5ccc(O)c4O[C@H]2[C@@H](O)C=C[C@H]3[C@H]1C5.O=S(=O)(O)O` [MS, morphine sulfate, reference compound], in data set [1], the “Reaction times with naloxone” value was “not increased during the first measurement, but gradually became longer”.
Turning to `CSCC[C@H](NC(=O)[C@H](CC(C)C)NC(=O)CNC(=O)[C@H](Cc1ccccc1)NC(=O)[C@H](Cc1ccccc1)NC(=O)[C@H](CCC(N)=O)NC(=O)[C@H](CCC(N)=O)NC(=O)[C@@H]1CCCN1C(=O)[C@H](CCCCN)NC(=O)[C@@H]1CCCN1C(=O)[C@@H](N)CCCNC(=N)N)C(N)=O` [Substance P, H-Arg-Pro-Lys-Pro-Gln-Gln-Phe-Phe-Gly-Leu-Met-NH2], in data set [2] (in vivo), the Addictiveness entry is “nonaddictive”. In addition, the Side-effects result in [2] (in vivo) was “relatively free from significant side-effects”. In data set [2] (morphine sulfate as standard of reference), the “Potency as an analgesic relative to morphine sulfate” value was “about 450 times”. The compound also displayed a Mean reaction time in data set [3] of 6.2 s. Besides, in [4], the Sialogogic activity result was “stimulated salivary secretion”. For the same compound, in data set [5], the “Commencement of analgesia following administration” value is 20 to 30 min. For the same compound, the “Time to peak effectiveness of analgesia” value in data set [5] was “about 1.5 hours”. In addition, the “Reaction times compared to those of controls” value in data set [1] is listed as “significantly increased”. Also, the “Reaction times with naloxone” value in data set [1] was “not increased during the first measurement, but gradually became longer”. Further, the “Reaction Time Over Controls” value in data set [6] (Group 1: (5 × 10^-9 g)(0.167 microgram/kg) ip, 30 min) was 7.04 ± 1.91 s; in data set [6] (Group 1: (5 × 10^-9 g)(0.167 microgram/kg) ip, 60 min) it was 6.56 ± 2.4 s; in [6] (Group 1: (5 × 10^-9 g)(0.167 microgram/kg) ip, 90 min) it was 8.36 ± 3.2 s; in data set [6] (Group 1: (5 × 10^-9 g)(0.167 microgram/kg) ip, 120 min), 6.24 ± 1.4 s; in data set [6] (Group 1: (5 × 10^-9 g)(0.167 microgram/kg) ip, 150 min) it was 3.84 ± 2.12 s; in data set [6] (Group 2: 1 microgram per mouse (33.3 microgram/kg) ip, 30 min), 7.6 ± 2.68 s. The “Reaction Time Over Controls” value in [6] (Group 2: 1 microgram per mouse (33.3 microgram/kg) ip, 60 min) turned out to be 11.44 ± 3.49 s; in data set [6] (Group 2: 1 microgram per mouse (33.3 microgram/kg) ip, 90 min), 10.96 ± 1.33 s; in data set [6] (Group 2: 1 microgram per mouse (33.3 microgram/kg) ip, 120 min), 8.2 ± 3.18 s; in data set [6] (Group 2: 1 microgram per mouse (33.3 microgram/kg) ip, 150 min), 4.08 ± 1.26 s. In addition, the “Increases in reaction times compared to the vehicle controls (Student t test)” value was “not statistically significant” in [6] (groups 1 and 2, 150 min); “significant” in [6] (groups 1 and 2, all times except 150 min). The “Algogen (pain-producing) activity” value in data set [7] is recorded as “very potent algogen”. For the same compound, in data set [8], the “Duration of sharp lowering of blood pressure” value is at most 7 min.
Turning to “Lipotropin C-Fragment: the entire 61-91 LPH fragment, extracted from pig pituitary (YGGFMTSEKSQTPLVTLFKNAIVKNAHKKGQ; Beta-endorphin; UniProt P01192 237-267, looked up)”, the “Potency relative to methionine enkephalin in inhibiting binding of naloxone and dihydromorphine” value in [9] was “approximately thirty”.
Regarding Tyr-Gly-Gly-Phe-Met [Met-Enk], the “Analgesic activity in vivo” value in data set [10] is given as “does not exhibit significant analgesic activity in vivo”.

Values taken from patent publication US4059693A, “Analgesic action of substance P” (priority 1976, dated 1977).
